The values that follow are results of earlier work, collected in patent US7834030B2, “Phenyl-[1,2,4]-oxadiazol-5-one derivatives, pharmaceutical compositions and therapeutic use thereof” (Sanofi-Aventis, priority 2005, dated 2010).

SMILES strings stand for the structures. Like-named read-outs stand apart in the source and are kept apart here.

The conditions of series [1]: diabetic animal model; cited from earlier work.
For series [2] the following is noted: obese, insulin resistant rhesus monkeys; cited from earlier work.
The conditions of series [3]: healthy volunteers, two weeks clinical trials; cited from earlier work.
The conditions of series [4]: rhesus monkeys; cited from earlier work.
The conditions of series [5]: cynomolgus monkeys; cited from earlier work.

Regarding `CCCc1c(OCCCOc2ccc(OCC(=O)O)cc2)ccc(C(C)=O)c1O` [Example L-165041], the plasma cholesterol result in series [1] is recorded as “raises plasma cholesterol”.

Regarding `Cc1cc(SCc2sc(-c3ccc(C(F)(F)F)cc3)nc2C)ccc1OCC(=O)O` [GW501516], in series [2], the HDL-cholesterol result is “raises”, the insulin levels result was “decreases”, the “plasma LDL-cholesterol” value was “decreases” and the triglycerides result is listed as “decreases”.

`CCCc1c(OCCCSc2nnc(SCC(=O)O)s2)ccc(C(C)=O)c1O` [YM-16638]: the plasma lipids result in series [3] is given as “acts in a similar manner”; in series [4], “significantly lowers”; in series [5], “significantly lowers”.
